# Assay results taken from article PMC10548421, “Anticancer Potential of Diruthenium Complexes with Bridging Hydrocarbyl Ligands from Bioactive Alkynols” (Inorganic Chemistry, 2023).
# Where two headings read alike, the source gives them in different places.
# Assays:
# [1] = Stability in H2O/CH3OH solution (UV–vis); type: physicochemical; details: ca. 5:1 v/v
# Method: (§1) […] The percentage of remaining complex in the solution was calculated by considering the change in absorbance at the characteristic wavelength. The identical procedure was employed to evaluate stability in MeOH and DMEM (about 1:5 v/v) solutions. DMEM stands for the cell culture medium (containing 1000 mg/L glucose and L-glutamine, excluding sodium bicarbonate and phenol red; reference D2902-Merck).
# [2] = system: A2780 human ovarian carcinoma cell line; experiment: MTT in vitro cytotoxicity, A2780; type: cell-based
# Method: (§2) The cytotoxicity assessment was conducted on various human cancer cell lines, including A2780 ovarian carcinoma, A2780R cisplatin-resistant ovarian carcinoma, MCF-7 breast, HOS osteosarcoma, A549 epithelial lung, PANC-1 pancreatic, Caco-2 colorectal, PC-3 prostate adenocarcinoma, and HeLa cervical cell lines. Additionally, the assessment extended to a normal human fetal fibroblast cell line (MRC-5). Cells were obtained from ATCC collection and cultivated according to the producer’s instructions. Stock solutions of the compounds were prepared in DMF immediately before application, and diluted with H2O to achieve the final concentration of 0.1% v/v DMF.[99] The culture media were enriched with 10% fetal calf serum. Subsequently, the cells were exposed to the tested compounds, vehicle (0.1% v/v DMF) and Triton X-100 (1% v/v), during incubation. The conventional MTT assay was carried out following different incubation periods (Tables 5-6). The absorbance was measured at 570 nm by using a spectrophotometer (Infinite M200, Schoeller Instruments, Prague, Czech Republic). The obtained data are presented as the percentage of cell viability with 100% representing negative control treatment (0.1% v/v DMF) and 0% representing the positive control (Triton X-100). The half-maximal inhibitory concentrations (IC50) were determined from dose–response curves using GraphPad Prism 6 software (GraphPad Software, San Diego, USA).
# [3] = system: HeLa human cervical carcinoma cell line; experiment: MTT in vitro cytotoxicity, HeLa; type: cell-based; details: incubation 24 h, mean ± SD
# Method: as §2
# [4] = system: Caco-2 human colorectal adenocarcinoma cell line; experiment: MTT in vitro cytotoxicity, Caco-2; type: cell-based; details: for IC50: incubation 24 h, mean ± SD
# Method: as §2, with “Additionally,” for “The cytotoxicity assessment was conducted on various human cancer cell lines, including A2780 ovarian carcinoma, A2780R cisplatin-resistant ovarian carcinoma, MCF-7 breast, HOS osteosarcoma, A549 epithelial lung, PANC-1 pancreatic, Caco-2 colorectal, PC-3 prostate adenocarcinoma, and HeLa cervical cell lines. Additionally,”
# [5] = system: HOS human osteosarcoma cell line; experiment: MTT in vitro cytotoxicity, HOS; type: cell-based; details: incubation 24 h, mean ± SD
# Method: as §2
# [6] = system: PC-3 human prostate carcinoma cell line; experiment: MTT in vitro cytotoxicity, PC-3; type: cell-based; details: incubation 24 h, mean ± SD
# Method: as §2
# [7] = Stability in DMEM/CH3OH solution (UV–vis); type: physicochemical; details: ca. 5:1 v/v
# Method: as §1
# [8] = system: PANC-1 human pancreatic carcinoma cell line; experiment: MTT in vitro cytotoxicity, PANC-1; type: cell-based; details: for IC50: incubation 24 h, mean ± SD
# Method: as §2
# [9] = system: MRC-5 normal human lung fibroblast cell line; experiment: MTT in vitro cytotoxicity, MRC-5 (selectivity); type: cell-based; details: normal cells, MTT, incubation 24 h, mean ± SD
# Method: as §2
# [10] = system: A2780R cisplatin-resistant human ovarian carcinoma cell line; experiment: MTT in vitro cytotoxicity, A2780R; type: cell-based; details: incubation 24 h, mean ± SD
# Method: as §2
# [11] = Octanol/water partition coefficient, shake-flask with UV–vis; type: physicochemical; details: 21 °C
# Method: Partition coefficients (Pow), defined by the formula Pow = corg/caq, wherein corg and caq denote the molar concentrations of the specific compound in octanol and aqueous phases, respectively, were obtained using the shake-flask method with UV–vis measurements, following a previously described procedure (Table 3).[98] All the operations were carried out at 21 ± 1 °C. The wavelength corresponding to the maximum absorption of each compound within the range 350–430 nm was employed for quantifying using UV–vis techniques.
# [12] = system: MCF-7 breast adenocarcinoma cell line; experiment: MTT in vitro cytotoxicity, MCF-7; type: cell-based, human; details: incubation 24 h, mean ± SD
# Method: as §2
# [13] = system: A549 human lung adenocarcinoma cell line; experiment: MTT in vitro cytotoxicity, A549; type: cell-based; details: for IC50: incubation 24 h, mean ± SD
# Method: as §2
# [14] = Cyclic voltammetry in CH2Cl2/[N^nBu4]PF6; type: physicochemical; details: CH2Cl2/[N^nBu4]PF6 0.2 M
# Method: Cyclic voltammetry measurements were conducted by using a PalmSens4 instrument connected to a computer operating with the PSTrace5 electrochemical software. Prior to use, anhydrous CH2Cl2 (Merck) was stored under argon over 3 Å molecular sieves. Both [N^nBu4]PF6 (electrochemical grade) and FeCp2, obtained from Fluka, were utilized without requiring additional purification. Cyclic voltammetries were carried out under argon by utilizing a 0.2 M solution of [N^nBu4]PF6 in CH2Cl2 as the supporting electrolyte. The working electrode and the counter electrode were comprised of a platinum disk and a platinum gauze, respectively, both enclosed within a glass tube. A leakage-free miniature electrode of Ag/AgCl/KCl (from eDAQ) was employed as a reference. The three-electrode designed cell was subjected to predrying via vacuum heating and then filled with argon gas. The Schlenk-type design of the cell was effective in upholding both anhydrous and anaerobic conditions. Subsequently, a solution of supporting electrolyte, prepared under argon, was introduced into the cell, and the CV of the solvent was acquired. Afterward, the analyte was introduced, and voltammograms were recorded. Under the selected experimental conditions, the one-electron oxidation of ferrocene occurred at a standard potential of E° = +0.45 V relative to Ag/AgCl/KCl.
# [15] = system: A2780 cells; experiment: Apoptosis, Annexin V/propidium iodide flow cytometry; type: cell-based, human; details: A2780, cisplatin 15 μM, 24 h, Annexin V/PI
# Method: (§3) The A2780 ovarian carcinoma cell line was received from Merck (reference 93112519–1VL) and cultured at 37 °C in an environment with 5% CO2. The cultivation was carried out in complete cell culture medium (RPMI-1640 medium, Merck), which was supplemented with 10% fetal bovine serum (FBS, Merck), 1% L-glutamine (Merck) and 1% penicillin–streptomycin–neomycin (PSN, Merck). For the flow cytometry experiments, three independent duplicates were analyzed using a BD FACSVerse flow cytometer (Becton Dickinson, USA). At least 5 × 10^3 events were recorded for each sample. The same procedure was replicated for the experiments described below. Solutions of the complexes were formulated using the stock solutions (Section 5.1).
# Apoptosis assay was performed using an Annexin V-FITC/PI commercial kit (V13242, Thermo Fisher Scientific, USA), while caspase 3/7 activation assay was performed with a CellEvent Caspase-3/7 Green Flow Cytometry Assay Kit (C10427, Thermo Fisher Scientific, USA). A2780 cells were seeded in 24-well plates at a density of 5 × 10^4 cells per well; after 24 h, the cells were exposed to 4 μM solution of the selected complex for 24 h. […] The supernatant was collected, cells were washed with PBS (0.1 M, pH 7.4), and trypsin was added (0.25% trypsin-EDTA, GibcoTM). Finally, complete cell culture medium was added to stop the trypsinization, and a final volume of 500 μL was divided into two 250 μL aliquots, following the protocol provided by the manufacturer. Samples were centrifuged, treated with the respective buffers, and then incubated in the dark at room temperature for 10 min (Annexin V-FITC/PI) or at 37 °C for 30 min (CellEventTM Caspase-3/7 Green Detection Reagent).
# [16] = system: A2780 cells; experiment: Mitochondrial membrane potential analysis (MITO-ID); type: cell-based, human; details: A2780, complexes 4 μM, cisplatin 15 μM, 24 h
# Method: as §3
# To investigate the effects on mitochondrial membrane potential of A2780 cells, an MITO-ID Membrane potential detection kit (Enzo Life Sciences, USA) was used. Cells were seeded in a 24-well (5 × 10^4 cells/well), and then incubated with 4 μM solution of complexes for 24 h. The supernatant was collected, cells were washed with warm PBS, detached using 0.25% trypsin-EDTA (Gibco) and resuspended in a cell culture medium. Then, samples were stained with diluted MITO-ID MP Detection Reagent (according to the protocol) at RT for 15 min, prior to flow cytometry analysis. A positive control was established by treating the samples with 2 μM carbonyl cyanide 3-chlorophenylhydrazone.
# [17] = system: A2780 cells; experiment: Autophagy analysis (CYTO-ID); type: cell-based, human; details: A2780, complexes 4 μM, cisplatin 15 μM, 24 h
# Method: as §3
# The potential induction of autophagy by 3a and 3b in A2780 cells was studied with the kit CYTO-ID Autophagy Detection 2.0 (from Enzo Life Sciences, USA), following the protocol provided by the manufacturer. […] The supernatant was collected, cells were washed with warm PBS, detached using 0.25% trypsin-EDTA (Gibco) and resuspended in a cell culture medium. Diluted CYTO-ID Green stain solution (according to the protocol) was used to stain the samples. Following incubation for 30 min in a light-protected environment, the samples were washed with PBS (phosphate-buffered saline). Subsequently, a flow cytometry experiment was conducted. A mixture of chloroquine (10 μM) and rapamycin (0.5 μM) was used as positive control.
# [18] = MTT, incubation 24 h, mean ± SD (Table 5), read-out: IC50 A2780
# [19] = time-course experiment (Table 6), 24 h, mean ± SD, read-out: IC50 A2780, incubation time 24 h
# [20] = time-course experiment (Table 6), 48 h, mean ± SD, read-out: IC50 A2780, incubation time 48 h
# [21] = time-course experiment (Table 6), 72 h, mean ± SD, read-out: IC50 A2780, incubation time 72 h
# [22] = vs Ag/AgCl/KCl, peak potential of irreversible process
Molecule,residual complex % in H2O/CH3OH ([1]; 2 h),residual complex % in H2O/CH3OH ([1]; 18 h),"IC50 [2, 18]","IC50 [2, 19]","IC50 [2, 20]","IC50 [2, 21]",IC50 [3],IC50 [4],IC50 [5],IC50 [6],residual complex % in DMEM/CH3OH ([7]; 2 h),residual complex % in DMEM/CH3OH ([7]; 18 h),IC50 [8],IC50 [9],IC50 [10],Log Pow [11],IC50 [12],IC50 [13],residual complex % in H2O/CH3OH ([1]; 30 min),further results
"CC12CCC3C(CCC4=CC(=O)CCC43C)C1CCC2=C=[CH][Ru]1(=[C]=O)([CH]2C=CC=C2)[C](=O)[Ru+]1(=[C]=O)[CH]1C=CC=C1.F[B-](F)(F)F (mixture of isomers) [3c, [Ru2Cp2(CO)3{μ–η^1:η^2-CH=C=(testosteronylidene)}]BF4]",94%,73%,6.3 ± 1.3 µM,4.7 ± 1 µM,5.1 ± 0.7 µM,6.8 ± 1.3 µM,16.3 ± 1.3 µM,42.8 ± 0.8 µM,17.7 ± 2.8 µM,19.6 ± 3.7 µM,89%,67%,30 ± 0.6 µM,21.5 ± 4 µM,11.7 ± 2.4 µM,0.89 ± 0.12,22 ± 4 µM,20.7 ± 1.4 µM,–,–
"O=[C]=[Ru]12([CH]3C=CC=C3)[CH]=C(C3(O)CCCC3)[C](=O)[Ru]1([CH]1C=CC=C1)[C]2=O (stereo not drawn) [2a, [Ru2Cp2(CO)2{μ–η^1:η^3-CH=C(1-cyclopentanol)C(=O)}]]",91%,23%,–,–,–,–,–,–,–,–,–,–,–,–,–,>1.5,–,–,97%,"Formal electrode potential, oxidation [14, 22]: +0.55 V; Formal electrode potential, reduction [14, 22]: –1.82 V; Formal electrode potential, oxidation ([14]; vs FeCp2 (in parentheses)): +0.11 V; Formal electrode potential, reduction ([14]; vs FeCp2 (in parentheses)): −2.26 V"
"CC12CCC(=O)C=C1CCC1C2CCC2(C)C1CCC2(O)C1=[CH][Ru]2(=[C]=O)([CH]3C=CC=C3)[C](=O)[Ru]2([CH]2C=CC=C2)[C]1=O (stereo not drawn) [2c, [Ru2Cp2(CO)2{μ–η^1:η^3-CHC(17-testosterone)C(O)}]]",81%,14%,–,–,–,–,–,–,–,–,–,–,–,–,–,>1.5,–,–,99%,–
"Cc1ccc(C(C)C)cc1.[Cl][Ru]([Cl])[PH]12CN3CN(CN(C3)C1)C2 [RAPTA-C, [Ru(η^6-p-cymene)Cl2(pta)], reference compound]",–,–,> 50 µM,> 50 µM,> 50 µM,> 50 µM,> 50 µM,> 50 µM,> 50 µM,> 50 µM,–,–,> 50 µM,> 50 µM,> 50 µM,–,> 50 µM,> 50 µM,–,–
"N.N.[Cl][Pt][Cl] [cisplatin, reference compound]",–,–,–,–,–,–,30.7 ± 0.6 µM,–,26.3 ± 3.3 µM,> 50 µM,–,–,> 50 µM,> 50 µM,40 ± 3.9 µM,–,28.4 ± 2.7 µM,39.2 ± 3.1 µM,–,cells with apoptotic changes [15]: ca. 40 % of the cells; cell count with damaged mitochondrial membranes (in words) [16]: notable augmentation; autophagy level (in words) [17]: significantly enhanced
[Ru2Cp2(CO)2{μ–η^1:η^3-CH=C(17α-estradiol)C(=O)}] [2b],–,0%,6.2 ± 1.2 µM,5.8 ± 0.4 µM,4.7 ± 0.8 µM,4.2 ± 0.6 µM,5.5 ± 0.9 µM,> 50 µM,24 ± 3.8 µM,36 ± 4.1 µM,50%,21%,> 50 µM,> 50 µM,7.3 ± 2.4 µM,>1.5,19 ± 4.5 µM,> 50 µM,69%,activity toward Caco-2 cells (in words) ([4]; 24 h): inactive; activity toward PANC-1 cells (in words) ([8]; 24 h): inactive; activity toward A549 cells (in words) ([13]; 24 h): inactive
